Reference: US9284350B2, “IAP BIR domain binding compounds” (Pharmascience Inc., priority 2010, dated 2016)

Key:
[1] = test system: Colorectal carcinoma HCT116 cells; test: Cell death assay (MTT) in combination with HGS ETR1; type: cell-based; settings: with HGS ETR1 30 ng/ml, 72 hours, read-out: HCT116+ mapatubimap EC50
Procedure: Colorectal carcinoma HCT116 cells were cultured as monolayers in 96 well plates at a density of 2000 cells per well in McCoy's 5a medium (HyClone) supplemented with 2.2 g/L sodium bicarbonate, 10% FBS (HyClone) and 1% penicillin/streptomycin (HyClone). 24 hours later, triplicate wells were treated with HGS ETR1 (30 ng/ml) in combination with compound. Cells were incubated in the presence of compound and HGS agonistic Trail receptor antibody, ETR1 (Mapatumamab, 30 ng/ml) for 72 hours. Metabolic viability of remaining cells was assessed by MTT (thiazolyl blue tetrazolium bromide, Sigma) assay.
EC50 values (50% cell survival in the presence of compound as compared to untreated controls) were calculated from survival curves using BioAssay software (CambridgeSoft) and GraphPad Prism (Graph Pad Software Inc.). The results are provided in Table 3, below, wherein A=less than 50 nM; B=less than 250 nM; C=less than 1000 nM; and D=greater than 1000 nM.

c-IAP1 = target: T1, c-IAP1 (Homo sapiens, UniProt Q13490); test: Fluorescence polarization-based competition assay, c-IAP1; type: binding; settings: FP assay, ki derived from IC50
T1 construct: GST (N); made in house; host or cells: E. coli DH5α
T1 sequence (Q13490 251-363): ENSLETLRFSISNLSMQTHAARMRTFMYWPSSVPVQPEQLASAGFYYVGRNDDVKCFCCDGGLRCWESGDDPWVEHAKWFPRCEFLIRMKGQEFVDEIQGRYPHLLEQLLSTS
Procedure: (§1) Binding of compounds of Formula 1 to target BIR domains was measured using a fluorescence-polarization (FP) assay. Fluorescence-polarization was evaluated using a GENios microplate reader (TECAN) Pro instrument with the excitation filter set at 485 nm and the emission filter set at 535 nm. The final amount of protein used in the assay corresponds to the amount of protein necessary to obtain 80% of the maximum FP value in a P1 or P2 fluorescent (FITC) probe saturation experiment. The compounds potency (IC50) and selectivity, was assessed in the presence of the amount of target protein established, fluorescent probe, and a 10 point serial dilution in assay buffer (50 mM Hepes, pH 7.5, 250 mcg/mL γ-globulin, 2 mM DTT, 1% DMSO) of the selected compounds.
(§2) Assays were carried out in duplicate using untreated black 96-well plates (Corning #3915) and a total volume of 100 microliters, containing 25 microliters of fluorescent probe at a final concentration of 2 nM in assay buffer, 25 microliters of diluted compound, 25 microliters of BIR protein into assay buffer and 25 microliters of assay buffer. Buffer only (blank) or probe only in buffer (G-factor) were used as controls for calibration. The plate was incubated at room temperature in the dark for one hour and FP values in millipolarization units (mP) were recorded using Genios Pro FP reader.
(§3) The measured FP values (mP) were then plotted against compound concentration, and IC50 values were calculated based on a sigmoidal dose-response (variable-slope) curve fit using GraphPad Prism version 4.02 for Windows, GraphPad Software, San Diego Calif. USA and/or CambridgeSoft BioAssay Enterprise Version 10.1. The IC50 value is the concentration of test compound at which 50% of the tracer was displaced. ki values were derived from the calculated IC50 values as described above and according to the equation described in Nikolovska-Coleska, Z. (2004) Anal Biochem 332, 261-273. The results are presented in Table 2, wherein A=less than 25 nM; B=less than 250 nM; C=less than 1000 nM; and D=greater than 1000 nM.

XIAP = target: T2, XIAP (Homo sapiens, UniProt P98170); test: Fluorescence polarization-based competition assay, XIAP; type: binding; settings: FP assay, ki derived from IC50
T2 construct: fused on or other part: GST tag at the N-terminus (pGEX4T vectors)
T2 sequence (P98170 246-497 limits assumed): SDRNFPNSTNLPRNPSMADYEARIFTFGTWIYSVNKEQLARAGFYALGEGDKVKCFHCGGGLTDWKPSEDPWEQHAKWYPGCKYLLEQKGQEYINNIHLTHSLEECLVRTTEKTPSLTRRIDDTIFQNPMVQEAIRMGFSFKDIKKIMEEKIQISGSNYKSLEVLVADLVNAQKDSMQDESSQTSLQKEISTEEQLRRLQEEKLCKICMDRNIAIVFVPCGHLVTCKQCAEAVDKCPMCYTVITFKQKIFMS
Procedure: as §1, §2, §3

Row | SMILES | EC50 [1] [nM] | Ki (c-IAP1) [nM] | Ki (XIAP) [nM]
1 | CC[C@H](NC)C(=O)N[C@H](C(=O)N1CCC[C@H]1CN(CCc1ccccc1)C(=O)c1cn2cccnc2n1)C1CCCCC1 [Compound 1] | < 250 | < 25 | < 1000
2 | CN[C@@H](C)C(=O)N[C@H](C(=O)N1CCC[C@H]1CN(CCc1ccccc1)C(=O)c1cn2cccnc2n1)C1CCOCC1 [Compound 3] | < 1000 | < 25 | < 250
3 | CN[C@@H](C)C(=O)N[C@H](C(=O)N1CCC[C@H]1CN(CCc1ccccc1)C(=O)c1cn2cccnc2n1)C1CCCCC1 [Compound 5] | < 50 | < 25 | < 250
4 | CN[C@@H](C)C(=O)N[C@H](C(=O)N1CCC[C@H]1CN(CCc1ccccc1)C(=O)c1cc2ccccn2c1)C(C)(C)C [Compound 8] | < 250 | < 25 | < 25
5 | CN[C@@H](C)C(=O)N[C@H](C(=O)N1CCC[C@H]1CN(CCc1ccccc1)C(=O)C(=O)Nc1ccccc1)C(C)(C)C [Compound 9] | < 250 | < 25 | < 250
6 | CN[C@@H](C)C(=O)N[C@H](C(=O)N1CCC[C@H]1CN(CCc1ccccc1F)C(=O)c1cn2cccnc2n1)C(C)(C)C [Compound 11] | < 250 | < 25 | < 250
7 | CN[C@@H](C)C(=O)N[C@H](C(=O)N1CCC[C@H]1CN(CCc1ccccc1)C(=O)c1cn2ccccc2n1)C1CCCCC1 [Compound 13] | < 250 | < 25 | < 250
8 | CN[C@@H](C)C(=O)N[C@H](C(=O)N1CCC[C@H]1CN(CCc1ccccc1)C(=O)c1cn2c(n1)CCCC2)C(C)(C)C [Compound 15] | < 250 | < 25 | < 250
9 | CN[C@@H](C)C(=O)N[C@H](C(=O)N1CCC[C@H]1CN(CCc1ccccc1)C(=O)c1nc2ccccc2[nH]1)C(C)(C)C [Compound 16] | < 1000 | < 25 | < 250
10 | CN[C@@H](C)C(=O)N[C@H](C(=O)N1CCC[C@H]1CN(CCc1ccc(F)cc1)C(=O)c1cn2ccccc2n1)C1CCOCC1 [Compound 19] | < 50 | < 25 | < 250
11 | CN[C@@H](C)C(=O)N[C@H](C(=O)N1CCC[C@H]1CN(CCc1ccccc1)C(=O)c1c[nH]cn1)C(C)(C)C [Compound 21] | < 1000 | < 25 | < 250
12 | CN[C@@H](C)C(=O)N[C@H](C(=O)N1CCC[C@H]1CN(CCc1ccccc1)C(=O)c1ncc[nH]1)C(C)(C)C [Compound 22] | < 250 | < 25 | < 250
13 | CN[C@@H](C)C(=O)N[C@H](C(=O)N1CCC[C@H]1CN(CCc1ccccc1)C(=O)c1ccc[nH]1)C(C)(C)C [Compound 23] | < 250 | < 25 | < 25
14 | CN[C@@H](C)C(=O)N[C@H](C(=O)N1CCC[C@H]1CN(CCc1ccccc1)C(=O)c1c[nH]c2ccccc12)C(C)(C)C [Compound 24] | < 250 | < 25 | < 250
15 | CN[C@@H](C)C(=O)N[C@H](C(=O)N1CCC[C@H]1CN(CCc1ccccc1)C(=O)c1cn(C)c2ccccc12)C(C)(C)C [Compound 25] | – | < 25 | < 250
16 | CN[C@@H](C)C(=O)N[C@H](C(=O)N1CCC[C@H]1CN(CCc1ccccc1)C(=O)c1cc2ccccc2n1C)C(C)(C)C [Compound 26] | < 1000 | < 25 | < 250
17 | CN[C@@H](C)C(=O)N[C@H](C(=O)N1CCC[C@H]1CN(CCc1ccccc1)C(=O)c1cc2ccccc2[nH]1)C(C)(C)C [Compound 27] | < 1000 | < 25 | < 250
18 | CN[C@@H](C)C(=O)N[C@H](C(=O)N1CCC[C@H]1CN(CCc1ccccc1)C(=O)c1cnc2ccccn12)C(C)(C)C [Compound 28] | < 1000 | < 25 | < 250
19 | CC[C@H](N)C(=O)N[C@H](C(=O)N1CCC[C@H]1CN(CCc1ccccc1)C(=O)c1cn2ccccc2n1)C1CCCCC1 [Compound 29] | > 1000 | < 25 | < 1000

Row | SMILES | EC50 [1] [nM] | Ki (c-IAP1) [nM] | Ki (XIAP) [nM]
20 | CN[C@@H](C)C(=O)N[C@H](C(=O)N1CCC[C@H]1CN(CCc1ccccc1)C(=O)c1cn2cc(C)ccc2n1)C(C)(C)C [Compound 30] | < 250 | < 25 | < 250
21 | CN[C@@H](C)C(=O)N[C@H](C(=O)N1CCC[C@H]1CN(CCc1ccccc1)C(=O)c1cn2ccc(C)cc2n1)C(C)(C)C [Compound 31] | < 250 | < 25 | < 250
22 | CN[C@@H](C)C(=O)N[C@H](C(=O)N1CCC[C@H]1CN(CCc1ccccc1)C(=O)c1cn2cccnc2n1)C1CCCC1 [Compound 33] | < 250 | < 25 | < 250
23 | CN[C@@H](C)C(=O)N[C@H](C(=O)N1CCC[C@H]1CN(CCc1ccccc1)C(=O)c1cn(C)cn1)C(C)(C)C [Compound 34] | < 250 | < 25 | < 250
24 | CN[C@@H](C)C(=O)N[C@H](C(=O)N1CCC[C@H]1CN(CCc1ccccc1)C(=O)c1cn2ccncc2n1)C(C)(C)C [Compound 35] | < 250 | < 25 | < 25
25 | CN[C@@H](C)C(=O)N[C@H](C(=O)N1CCC[C@H]1CN(CCc1ccc(F)cc1)C(=O)c1cnc2ncccn12)C(C)(C)C [Compound 38] | < 250 | – | –
26 | CN[C@@H](C)C(=O)N[C@H](C(=O)N1CCC[C@H]1CN(CCc1ccc(F)cc1)C(=O)c1cn2cc(F)ccc2n1)C(C)(C)C [Compound 39] | < 250 | < 25 | < 250
27 | CN[C@@H](C)C(=O)N[C@H](C(=O)N1CCC[C@H]1CN(CCc1ccc(F)cc1)C(=O)C(=O)Nc1ccc(OC)cc1)C(C)(C)C [Compound 41] | < 1000 | < 25 | < 250
28 | CN[C@@H](C)C(=O)N[C@H](C(=O)N1CCC[C@H]1CN(CCc1ccc(F)cc1)C(=O)C(=O)Nc1ccc(F)cc1)C(C)(C)C [Compound 42] | < 1000 | < 25 | < 250
29 | CN[C@@H](C)C(=O)N[C@H](C(=O)N1CCC[C@H]1CN(CCc1ccc(F)cc1)C(=O)c1cn2cc(NC(C)=O)ccc2n1)C(C)(C)C [Compound 43] | < 250 | < 25 | < 250
30 | CN[C@@H](C)C(=O)N[C@H](C(=O)N1CCC[C@H]1CN(CCc1ccc(F)cc1)C(=O)c1cn2cc(N)ccc2n1)C(C)(C)C [Compound 45] | < 50 | < 25 | < 25
31 | CN[C@@H](C)C(=O)N[C@H](C(=O)N1CCC[C@H]1CN(CCc1ccc(F)cc1)C(=O)c1cn2cc(O)cnc2n1)C(C)(C)C [Compound 46] | < 1000 | < 25 | < 250
32 | CN[C@@H](C)C(=O)N[C@H](C(=O)N1CCC[C@H]1CN(CCc1ccc(F)cc1)C(=O)c1cn2cc(-c3ccccc3)ccc2n1)C(C)(C)C [Compound 48] | < 50 | < 25 | < 250
33 | CN[C@@H](C)C(=O)N[C@H](C(=O)N1CCC[C@H]1CN(CCc1ccc(F)cc1)C(=O)c1cn2cc(OC)ccc2n1)C(C)(C)C [Compound 51] | < 250 | < 25 | < 250
34 | CN[C@@H](C)C(=O)N[C@H](C(=O)N1CCC[C@H]1CN(CCc1ccc(F)cc1)C(=O)c1cc(C)n(C)n1)C(C)(C)C [Compound 101] | < 50 | – | –
35 | CN[C@@H](C)C(=O)N[C@H](C(=O)N1CCC[C@H]1CN(CCc1ccc(F)cc1)C(=O)c1cnn(-c2ccc(F)cc2)n1)C1CCCCC1 [Compound 118] | < 250 | – | –
36 | CN[C@@H](C)C(=O)N[C@H](C(=O)N1C[C@@H](Oc2ccc(F)cc2)C[C@H]1CN(CCc1ccc(F)cc1)C(=O)c1cnn(-c2ccc(F)cc2)n1)C(C)(C)C [Compound 119] | < 250 | – | –
37 | CN[C@@H](C)C(=O)N[C@H](C(=O)N1C[C@@H](Oc2ccc(F)cc2)C[C@H]1CN(CCc1ccc(F)cc1)C(=O)c1cc(C)n(C)n1)C(C)(C)C [Compound 121] | < 50 | – | –
